From patent US20140128333A1, “Compounds, Compositions, and Methods for Decreasing Intestinal Glucose Uptake and Inducing Incretin Release” (MAQUI NEW LIFE S.A., priority 2012, published 2014)
“Also recorded” adds a separate entry of the source.

Assays:
GPR40 receptor = biological target: T1, GPR40 receptor (Homo sapiens, UniProt O14842); assay: Measurement of calcium influx in Fura-2/AM-loaded HT-29 cells; type: cell-based; settings: 100 μM
T1 construct: To assess and ensure the participation of GPR40 on calcium mobilization induced by delphinidin and cyanidin, Fura-2/AM-loaded HT-29 cells; endogenous in cells; host or cells: HT-29 cells
Method: HT-29 cells were suspended in HBSS at a concentration of 20×10^6 cells/ml and incubated with 1 μM Fura-2/AM (Molecular Probes) for 30 min at 37° C. The cells were then washed twice, divided into 2×10^6 cells/ml aliquots and maintained at 4° C. in the dark until use. Cells were then pelleted by centrifugation at 1200 rpm for 6 min and re-suspended in 2 ml HEPES buffer [20 mM HEPES, pH 7.2; 140 mM NaCl; 10 mM glucose; 1 mM KCl; 1 mM Ca^2+ chloride (CaCl2); and 1 mM MgCl2].
The influx of Ca^2+ was recorded as the 340:380 excitation ratio at 509 nm emission in a LS55 thermoregulated spectrofluorimeter (Perkin-Elmer, Mass., USA).

SGLT-1 = biological target: T2, SGLT-1 (Mus musculus, UniProt Q8C3K6); assay: Ussing chamber: sodium-coupled D-glucose transport in mouse jejunum (short circuit current); settings: 50 μM delphinidin on mucosal side
T2 construct: Two sections of jejunum per animal were mounted in Ussing Chambers; from tissue; host or cells: jejunum of C57Bl/6J mice
T2 sequence (Q8C3K6 1-665): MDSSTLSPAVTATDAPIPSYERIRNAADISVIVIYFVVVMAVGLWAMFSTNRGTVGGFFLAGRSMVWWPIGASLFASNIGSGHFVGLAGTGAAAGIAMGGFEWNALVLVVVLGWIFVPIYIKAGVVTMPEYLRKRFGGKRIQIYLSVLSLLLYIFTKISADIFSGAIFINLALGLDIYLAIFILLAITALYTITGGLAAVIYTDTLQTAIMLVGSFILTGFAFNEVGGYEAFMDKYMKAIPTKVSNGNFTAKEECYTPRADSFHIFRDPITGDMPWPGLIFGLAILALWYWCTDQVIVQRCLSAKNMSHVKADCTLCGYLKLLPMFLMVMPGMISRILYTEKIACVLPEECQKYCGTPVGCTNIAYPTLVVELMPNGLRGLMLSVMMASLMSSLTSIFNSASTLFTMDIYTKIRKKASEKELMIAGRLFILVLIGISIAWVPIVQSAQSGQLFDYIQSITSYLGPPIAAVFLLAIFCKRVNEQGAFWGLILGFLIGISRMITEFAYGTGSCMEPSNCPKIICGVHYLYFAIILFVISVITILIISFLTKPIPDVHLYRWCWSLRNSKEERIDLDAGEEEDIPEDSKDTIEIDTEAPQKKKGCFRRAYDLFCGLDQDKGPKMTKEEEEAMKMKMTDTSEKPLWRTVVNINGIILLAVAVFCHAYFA
Excerpt: C57B1/6J mice were obtained from The Jackson Laboratory (Bar Harbor, Me., USA). The mice were maintained at the Specific Pathogen Free mouse facility of the Centro de Estudios Científicos (CECS), Valdivia, Chile and prior to the experiments they had free access to water and food. Animals were killed by cervical dislocation according to local Institutional Animal Care and Use Committee (IACUC) regulations. The jejunum was isolated, open longitudinally along the mesenteric border and rinsed with phosphate buffered saline (PBS).
Two sections of jejunum per animal were mounted in Ussing Chambers and maintained in Ussing buffer (120 Mm NaCl, 25 mM NaHCO3, KH2PO4 3.3 mM, 0.8 mM K2HPO4, 1.2 mM MgCl2 and 1.2 mM CaCl2) supplemented with 10 mM D-glucose in the serosal side. […] The effect of delphinidin on sodium-coupled transport of glucose was determined by application of this molecule at a concentration of 50 μM in the mucosal side of the preparation. The transepithelial electrical potential difference (VM), defined as the potential side compared to serous mucus preparation was recorded continuously under current clamp configuration using a VCC MC2 amplifier (Physiological Instruments). The values of short circuit current (Isc) were calculated from experimental data using Ohm's law. The results are expressed as the intensity of the Isc (μA/cm^2). […]

GLP-1 production = GLP-1 production in NCI-H716 cells by flow cytometry; type: cell-based; settings: 50 μM delphinidin, 48 hrs, Brefeldin A
Method: After two washes in PBS, the cells were stained with mouse anti-GLP-1 antibody for 1 hr at 4° C. The cells were washed twice with PBS, incubated for 1 hr at 4° C. with anti-mouse Alexa 488 (1:200 dilution) and finally washed twice with PBS. The cells were assessed by flow cytometry on a FACSCanto II (Becton Dickinson).

GLP-1 mRNA expression = GLP-1 mRNA expression in NCI-H716 cells by qRT-PCR; type: cell-based; settings: delphinidin 10, 50 or 100 μM tested, increase at 50 and 100 μM, 24 h
Method: Total RNA was isolated from […] cells using the RNeasy Plus Mini Kit according to the manufacturer's instructions. Approximately 1 μg of total RNA, 0.5 μg of oligo (dT)18 primer, 10 mM dNTPs and 200 U of reverse transcriptase were used for each cDNA synthesis reaction. PCR amplifications were performed using the Brilliant II SYBR Green QPCR Master Mix (Stratagene) according to the manufacturer's instructions. All reactions were carried out using an Mx300p thermal cycler (Stratagene, Calif., USA). GLP-1 specific primers were used.

T1 sequence (O14842 whole entry): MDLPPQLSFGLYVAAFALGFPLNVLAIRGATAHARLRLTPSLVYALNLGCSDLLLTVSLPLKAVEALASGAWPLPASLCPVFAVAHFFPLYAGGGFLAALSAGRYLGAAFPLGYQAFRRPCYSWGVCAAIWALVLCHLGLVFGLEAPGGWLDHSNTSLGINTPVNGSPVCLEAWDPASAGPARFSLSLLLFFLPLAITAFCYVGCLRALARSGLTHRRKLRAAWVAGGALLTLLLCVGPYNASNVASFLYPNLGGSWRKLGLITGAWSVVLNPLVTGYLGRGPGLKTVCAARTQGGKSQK

## Oc1cc(O)c2cc(O)c(-c3cc(O)c(O)c(O)c3)[o+]c2c1 [Delphinidin, 2-(3,4,5-trihydroxyphenyl)chromenylium-3,5,7-triol]
GPR40 receptor
  calcium fluxes (340/380 ratio) in HT-29 cells: induces calcium fluxes
SGLT-1; n=4
  decrease of sodium current (Isc) induced by 10 mM D-glucose / inhibition of glucose transport by jejunal mucosa: about 40%
SGLT-1; n=4, listed as delphinidin
  decrease of sodium current (Isc) induced by 10 mM D-glucose / inhibition of glucose transport by jejunal mucosa: approximately 60%
GLP-1 production
  amount of GLP-1 compared to control cells: induced an increase
GLP-1 mRNA expression
  expression of GLP-1 mRNA with respect to control: induces; also recorded: increased
